Data published in US20030049287A1, “Catechol oximes and their use in cosmetic and dermatological preparations” (priority 1999, published 2003).

Experiment: Rancimat accelerated autoxidation of lipids by air, squalene
Details: antioxidative index = IP(with test solution)/IP(control sample), squalene purified over alumina, stabilized with 1 ppm α-tocopherol, 0.005% test substance
Method: (§1) The activity of the illustrative compounds according to Examples 7 to 13 as antioxidants was compared with the conventional antioxidants and two examples from WO 95 01,157. The test system used was the accelerated autoxidation of lipids by air with or without antioxidant using the Rancimat apparatus (Rancimat is a registered trademark of Metrohm AG, Herisau, Switzerland).
(§2) The illustrative compounds, vitamin C, α-tocopherol and dibutyihydroxytoluene were dissolved in methanol or acetone and 100 μl of each test solution were added to a prepared oil sample of 3 g. In a control sample only solvent was added. A constant stream of dry air (20 l/h) was bubbled through the heated oil sample containing the test solution, and the volatile oxidation products (predominantly short-chain fatty acids such as formic acid or acetic acid) were collected in a receiver containing water. The conductivity of this aqueous solution was measured continuously and documented. The oxidation of (unsaturated) fats proceeds here only very slowly for a period of time and then suddenly increases greatly. The time to the increase is referred to as the induction period (IP).
(§3) The antioxidative index (AOI) was obtained according to the following equation:
(§4) AOI=IP(with test solution)/IP(control sample).
The results for the experiment at 80° C. in squalene that was purified over alumina grade N and stabilized with 1 ppm of α-tocopherol are shown in table 4: […]

Compound | AOI in squalene at 80° C. with 0.005% of test substance
Cc1ccc(CON=Cc2ccc(O)c(O)c2)cc1 [Example 11, 3,4-Dihydroxybenzaldehyde O-(4-methylbenzyl)oxime] | 50
ON=Cc1ccc(O)c(O)c1 [Example 7, 3,4-Dihydroxybenzaldehyde oxime] | 70
ON=Cc1cc(O)c(O)c(O)c1 [Example 9, 3,4,5-Trihydroxybenzaldehyde oxime] | 150
CC(=NO)c1ccccc1O [o-Hydroxyacetophenone oxime, reference compound] | 1.6
CCON=Cc1cc(O)c(O)c(O)c1 [Example 13, 3,4,5-Trihydroxybenzaldehyde O-ethyloxime] | 126
Cc1c(C)c2c(c(C)c1O)CC[C@@](C)(CCC[C@H](C)CCC[C@H](C)CCCC(C)C)O2 [α-Tocopherol, reference compound] | 39
CCON=Cc1ccc(O)c(O)c1 [Example 10, 3,4-Dihydroxybenzaldehyde O-ethyloxime] | 85
CC(=NO)c1ccc(O)c(O)c1 [Example 8, 3,4-Dihydroxyacetophenone oxime] | 95
Cc1cc(C(C)(C)C)c(O)c(C(C)(C)C)c1 [Dibutylhydroxytoluene, reference compound] | 38
CCON=C(C)c1ccc(O)c(O)c1 [Example 12, 3,4-Dihydroxyacetophenone O-ethyloxime] | 65
O=C1O[C@H]([C@@H](O)CO)C(O)=C1O [Vitamin C, reference compound] | 0.7

Experiment: Rancimat accelerated autoxidation of lipids by air, soybean oil
Details: antioxidative index = IP(with test solution)/IP(control sample), soybean oil purified over alumina, 0.05% test substance
Method: as §1, §2, §3, §4

Compound | AOI in soybean oil at 100° C. with 0.05% of test substance
Cc1ccc(CON=Cc2ccc(O)c(O)c2)cc1 [Example 11, 3,4-Dihydroxybenzaldehyde O-(4-methylbenzyl)oxime] | 14.1
ON=Cc1ccc(O)c(O)c1 [Example 7, 3,4-Dihydroxybenzaldehyde oxime] | 15.8
ON=Cc1cc(O)c(O)c(O)c1 [Example 9, 3,4,5-Trihydroxybenzaldehyde oxime] | 20.9
CC(=NO)c1ccccc1O [o-Hydroxyacetophenone oxime, reference compound] | 0.9
CCON=Cc1cc(O)c(O)c(O)c1 [Example 13, 3,4,5-Trihydroxybenzaldehyde O-ethyloxime] | 17.2
Cc1c(C)c2c(c(C)c1O)CC[C@@](C)(CCC[C@H](C)CCC[C@H](C)CCCC(C)C)O2 [α-Tocopherol, reference compound] | 5.1
CCON=Cc1ccc(O)c(O)c1 [Example 10, 3,4-Dihydroxybenzaldehyde O-ethyloxime] | 17.3
CC(=NO)c1ccc(O)c(O)c1 [Example 8, 3,4-Dihydroxyacetophenone oxime] | 16.6
Cc1cc(C(C)(C)C)c(O)c(C(C)(C)C)c1 [Dibutylhydroxytoluene, reference compound] | 4.8
CCON=C(C)c1ccc(O)c(O)c1 [Example 12, 3,4-Dihydroxyacetophenone O-ethyloxime] | 15.2
O=C1O[C@H]([C@@H](O)CO)C(O)=C1O [Vitamin C, reference compound] | 1.2

Experiment: DPPH test, activity as free-radical scavenger
Type: biochemical
Details: DPPH 100 μmol/l in methanol, absorption at 515 nm
Method: The activity of the illustrative compounds as in examples 7 to 13 as free-radical scavengers was compared with the conventional free-radical scavenger and two examples from WO 95 01,157. For this, the DPPH (1,1-diphenyl-2-picryl-hydrazyl) test was used to eliminate free radicals.
DPPH was dissolved in methanol to a concentration of 100 μmol/l. A series of dilutions of the illustrative compounds, vitamin C, α-tocopherol and dibutylhydroxytoluene were prepared in methanol. Methanol was used as the control. 2500 μl of the DPPH solution were mixed with 500 μl of each test solution, and the decrease in the absorption at 515 nm was read off until the decrease was less than 2% per hour. The activity of the test substances as free-radical scavengers was calculated according to the following equation:
Activity as free-radical scavenger (%)=100−(absorption of the test compounds)/(absorption of the control)×100.
The activity of the free-radical scavengers (%) in a series of dilutions of test compounds was used to calculate, for each test compound, the effective relative concentration EC50 (based on the initially present concentration of DPPH, EC=c (test compound)/c(DPPH)) of a test compound at which 50% of the DPPH free radical had been eliminated.

EC50 (effective relative concentration, c(test compound)/c(DPPH), at which 50% of the DPPH free radical had been eliminated) [mol/mol] | Compound
0.131 | Cc1ccc(CON=Cc2ccc(O)c(O)c2)cc1 [Example 11, 3,4-Dihydroxybenzaldehyde O-(4-methylbenzyl)oxime]
0.053 | ON=Cc1ccc(O)c(O)c1 [Example 7, 3,4-Dihydroxybenzaldehyde oxime]
0.090 | ON=Cc1cc(O)c(O)c(O)c1 [Example 9, 3,4,5-Trihydroxybenzaldehyde oxime]
>3.0 | CC(=NO)c1ccccc1O [o-Hydroxyacetophenone oxime, reference compound]
0.132 | CCON=Cc1cc(O)c(O)c(O)c1 [Example 13, 3,4,5-Trihydroxybenzaldehyde O-ethyloxime]
0.250 | Cc1c(C)c2c(c(C)c1O)CC[C@@](C)(CCC[C@H](C)CCC[C@H](C)CCCC(C)C)O2 [α-Tocopherol, reference compound]
0.156 | CCON=Cc1ccc(O)c(O)c1 [Example 10, 3,4-Dihydroxybenzaldehyde O-ethyloxime]
0.073 | CC(=NO)c1ccc(O)c(O)c1 [Example 8, 3,4-Dihydroxyacetophenone oxime]
0.298 | CCON=C(C)c1ccc(O)c(O)c1 [Example 12, 3,4-Dihydroxyacetophenone O-ethyloxime]
0.270 | O=C1O[C@H]([C@@H](O)CO)C(O)=C1O [Vitamin C, reference compound]

Compound | EC50 (effective relative concentration, c(test compound)/c(DPPH), at which 50% of the DPPH free radical had been eliminated) [mol/mol]
Cc1cc(C(C)(C)C)c(O)c(C(C)(C)C)c1 [Dibutylhydroxytoluene, reference compound] | 0.240

Experiment: not given
Details: not given

melting point | Compound
85 to 86 °C | Cc1ccc(CON=Cc2ccc(O)c(O)c2)cc1 [Example 11, 3,4-Dihydroxybenzaldehyde O-(4-methylbenzyl)oxime]
143 °C (dec.) | ON=Cc1ccc(O)c(O)c1 [Example 7, 3,4-Dihydroxybenzaldehyde oxime]
177 °C (dec.) | ON=Cc1cc(O)c(O)c(O)c1 [Example 9, 3,4,5-Trihydroxybenzaldehyde oxime]
80 °C | CCON=Cc1cc(O)c(O)c(O)c1 [Example 13, 3,4,5-Trihydroxybenzaldehyde O-ethyloxime]
< 23 °C | CCON=Cc1ccc(O)c(O)c1 [Example 10, 3,4-Dihydroxybenzaldehyde O-ethyloxime]
